Each structure is given as a SMILES string. Counter-ions that a name gives are not always drawn. A value given as a limit tells only on which side of the number the result lay.

Consider one molecule from article PMC11676896, “Protective Action of Cannabidiol on Tiamulin Toxicity in Humans—In Vitro Study” (International Journal of Molecular Sciences, 2024).

What all share (test): LDH leakage assay (cell membrane integrity)
Holding throughout (format): cell-based, human
(In general: LDH leaks from cells whose membrane has failed.)

The subject of one series is HEK 293 cells. The protocol:
(§1) The cytotoxic potential of the veterinary drug and its mixtures with cannabidiol at two non-toxic concentrations: 1.56 and 3.15 µg/mL, on the human SH-SY5Y, HepG2 and HEK 293 cell lines was assessed by decreased viability of the cells within five biochemical endpoints: mitochondrial activity and lysosomal activity (MTT assays, reducing the tetrazolium dye MTT 3-(4,5-dimethylthiazol-2-yl)-2,5-diphenyltetrazolium bromide and neutral red uptake (NRU) assays), total protein content (TPC assay), cellular membrane integrity (leakage lactate dehydrogenase (LDH) assay) and DNA synthesis (the bromodeoxyuridine/5-bromo-2′-deoxyuridine incorporation into the DNA cells (BrdU) assay) after 72 h exposition. Data obtained from the measurement of the optical density in these assays were transformed to percentages in relation to the negative control group (0.1% DMSO in medium), considered to be 100% for the MTT, NRU, TPC and BrdU assays and 0% for the LDH assay. 1% Trition-X 100 solution in medium was used as the positive controls, (Figure 3).
(§2) The human neuroblastoma (SH-SY5H), hepatoma (HepG2) and kidney cells (HEK 293) cells were purchased from the American Type Culture Collection: ATCCCRL-2266,ATCC HB-8065 and ATCC CRL-1573, respectively. These cells were cultured in Minimum Essential Medium Eagle (MEME) (ATCC). The media were supplemented with 10% FBS, 1% L-glutamine (and 1% antibiotic solution (P4333 Sigma). The cells were maintained in 75 cm^2 cell culture flasks (NUNC) in a humidified incubator at 37 °C in an atmosphere of 5% CO2. The medium was refreshed every two or three days, and the cells were subcultured by 0.25% trypsin–0.02% EDTA after reaching 70–80% confluence. Single cell suspensions were prepared and adjusted to a density of 2 × 10^5 cell/mL^−1 (SH-SY5H), 1 × 10^5 cell/mL^−1 (HepG2) and 1 × 10^5 cell/mL^−1 (HEK-293). The cell suspension was transferred to 96-well plates (100 µL/well) or Lab-Tek chamber slides (8 wells) (Nunc) for staining and incubated for 24 h before the exposure to the studied compounds. Stock solutions of tiamulin fumarate and cannabidiol were prepared in DMSO and diluted with culture medium to obtain a concentration range from 1.56 to 200 µg/mL and 1.56 or 3.156 µg/mL, respectively. The selection of tiamulin concentrations was based on data from the literature and pilot studies. The final concentration of DMSO was 0.1% in the medium. The same final concentrations of the solvent and the 1% Trition-X 100 solution were used as the negative and positive controls, respectively. A total of 500 µM hydrogen peroxide (H2O2) in was used as the positive control in the DCFH assay. […] As a negative control, cultured cells were grown in the absence of studied compounds. Each concentration was tested in six replicates in three independent experiments. Cytotoxicity was assessed after 72 h of exposure of the cells to the compounds. The medium was not changed during the incubation time.
(§3) The integrity of the plasma membrane was assessed through the test of lactate dehydrogenase (LDH) release, which was monitored using the commercially available Cytotoxicity Detection Kit (LDH) (Roche Diagnostics, Warsaw, Poland). The medium (100 µL/well) without cells was transferred into the corresponding wells of an optically clear 96-well flat bottom microplate, and 100 µL reaction mixture was added to each well. Then, the plates were incubated for 30 min at room temperature in darkness. After that time, 50 µL/well of 1 M HCl was added to stop the reaction. The absorbance was measured at 492 nm in a Synergy 2 Multi-Mode Microplate Reader (BiTek® Instruments Inc., Winooski, VT, USA) using a blank as a reference.
(§4) This study was performed in three independent experiments. The obtained results are presented as mean values ± SD (standard deviation). […]

The next series relates to HepG2 cells. Conditions: HepG2, 72 h. The method, then: as §1, §2, §3, §4
The subject of the next series is SH-SY5Y cells. To be noted: 72 h. The protocol: as §1, §2, §3, §4
Setting [1] is: Homo sapiens, read-out: inhibited concentration (IC50), LDH.

Consider `C=C[C@]1(C)C[C@@H](OC(=O)CSCCN(CC)CC)[C@]2(C)[C@H](C)CC[C@]3(CCC(=O)[C@H]32)[C@@H](C)[C@@H]1O` [T, tiamulin fumarate], for which the “tiamulin concentration that caused disintegration of the cell membrane” value with HEK 293 cells (HEK-293, 72 h) was 25 µg/mL; in the series with HepG2 cells it was 25 µg/mL; in the series with SH-SY5Y cells, 25 µg/mL. Moreover, the IC50 in the series on HEK 293 cells (Homo sapiens, HEK293, 72 h, read-out: inhibited concentration (IC50), LDH) is 76.9 ± 2.3 µg/mL; with HepG2 cells (setting [1]), 39.5 ± 1.7 µg/mL; with SH-SY5Y cells (setting [1]), more than 200 µg/mL.
